According to patent publication US8815266B2, “Peptide derivatives useful in the treatment, care or cleansing of the skin, mucosae, scalp or nails” (Lipotech, S.A., priority 2008, dated 2014):
Non-standard residues stand in square brackets, D forms with d. *: point of attachment. Palmitoyl = CCCCCCCCCCCCCCCC(=O)*; Ahx = NCCCCCC(=O)O

Experiments:
hBD2 promoter = test: Activation of the hBD2 promoter (luciferase activity assay) in a stable A549 cell line; assay type: cell-based, human
Experimental: Assay of activation of the hBD2 promoter in a stable cell line by the compounds of general formula (I) obtained in Example 5.
The A549 human epithelial cell line was cultured using RPMI-1640 medium supplemented with FBS and Penicillin-Streptomycin. It was routinely cultured by dividing the cultures twice a week at a 1:10 dilution using Trypsin-EDTA. 10^6 cells of the A549 line were seeded in a 60 mm disc treated with polylysine. After 24 h they were cotransfected with 10 μg of a gene construct formed by the hBD2 gene promoter followed by the luciferase protein gene (pGL3-hBD2promotor-Luc), and the pcDNA3B plasmid DNA containing the geneticin antibiotic resistance gene, at a 1:5 pcDNA3B.1/pGL3-hBD2promotor-Luc ratio. 25 μL of Lipofectamine™ 2000 were used for the transfection. After 24 h the selection was started with complete medium supplemented with the G418-Geneticin® antibiotic, the selection medium being renewed every 2 days. Different clones were isolated, which were characterized and selected based on the luciferase activity.
The selected stable lines were cultured using complete medium for the parental line supplemented with G418. They were routinely cultured by dividing the cultures twice a week at a 1:10 dilution using Trypsin-EDTA.
The capacity to activate the hBD2 promoter was determined by means of the luciferase activity assay since a transcriptional agent inducing hBD2 synthesis causes luciferase enzyme production by means of activating the hBD2 gene promoter contained in the pGL3-hBD2promotor-Luc construct, a luminescence increase being observed. The selected stable cell lines were seeded at 20,000 cells per plate. After 24 h the plates were washed and incubated for 24 h in modified RPMI-1640 medium without L-Isoleucine with different peptide derivatives at a concentration of 0.5 mM. LPS (100 μg/mL) and L-Isoleucine (25 μg/mL) were used as positive controls with the same treatment as the peptide derivatives. Once the incubation period had ended, the Steady-Glo Luciferase Assay System reagent (Promega Corp.) was added to the cells, following the protocol of the commercial company. The luminescent signal (ULAs/s) produced by the reaction between the luciferase and its substrate was quantified with a LUMIstar Galaxy plate luminometer (BMG Labtechnologies). Based on the values of luciferase activity (ULAs/s), standardized with the negative controls, the activation of the hBD2 promoter was determined.

hBD2 mRNA = test: Quantification of hBD2 mRNA in human keratinocytes by real-time quantitative RT-PCR; assay type: cell-based; settings: 16 h-24 h
Experimental: Quantification of the hBD2 mRNA secreted in human keratinocytes after incubation with Ac-L-Glu-L-Met-L-Ala-L-Ile-OH (Ac-SEQ ID No. 3-OH), Ac-L-Arg-Phg-Phg-OH and Ac-L-Arg-Ahx-L-Ala-OH.
(§1) The quantification of the amount of mRNA secreted was carried out by means of a real-time quantitative RT-PCR assay. 3×10^6 cells of a human keratinocyte line were used, seeded in 25 cm^2 flasks. The cells were washed and incubated for 16 h-24 h with different peptide derivatives at a concentration of 1 mm or 0.25 mm in a volume of 3 mL of DMEM medium. LPS (100 μg/mL) and L-Ile (200 μg/mL) were used as positive controls. The supernatants of the cells were stored at −80° C., to analyze the secreted hBD2 protein level and the total RNA was extracted from the cells with the RNeasy kit (Quiagen) following the protocol of the commercial company.
A retrotranscription reaction was carried out in a Mastercycler thermal cycler from 1 μg of total RNA of each sample, using the GeneAmp RNA PCR kit (Applied Biosystems) according to the protocol of the commercial company, and subsequently a real-time PCR was carried out by means of the assay with the SYBR Green I fluorophore in an ABI PRIS M 7700 Sequence Detector (Applied Biosystems).
The amount of mRNA was quantified by standardizing normalizing it with respect to the values of endogenous 18S ribosomal RNA. These values were in turn standardized with respect to the untreated cells and they were represented as the relative hBD2 mRNA level.

hBD2 = test: Quantification of hBD2 secreted by human keratinocytes by ELISA; assay type: cell-based
Experimental: as §1
Quantification of the hBD2 secreted in human keratinocytes after incubation with Ac-L-Glu-L-Met-L-Ala-L-Ile-OH (Ac-SEQ ID No. 3-OH), Ac-L-Arg-Phg-Phg-OH and Ac-L-Arg-Ahx-L-Ala-OH.
The amount of hBD2 secreted by human keratinocytes was quantified by means of an ELISA assay using the Human BD-2 ELISA Development commercial kit (Peprotech) from the supernatants of the cells coming from Example 15.
Based on the absorbance data obtained, the hBD2 protein level was calculated after the calibration with recombinant hBD2. The values of hBD2 obtained were standardized with respect to the values of the control assays (untreated cells).

[1] = peptide derivative 0.5 mM, 24 h incubation, A549 pGL3-hBD2promotor-Luc stable line, standardized with negative controls (CONTROL 100%)
[2] = 0.25 mM peptide, normalized to 18S rRNA and untreated cells (CONTROL 100%)
[3] = 0.25 mm peptide, supernatants of human keratinocytes from Example 15, standardized to untreated cells (CONTROL 100%)

Compound	LUMINESCENCE INCREASE (hBD2 promoter; [1]) [%]	Relative hBD2 mRNA level (hBD2 mRNA; [2]) [%]	Relative hBD2 level (hBD2; [3]) [%]	other results
Palm-L-Glu-L-Met-L-Ala-L-Ile-NH2 (Palmitoyl-EMAI-NH2; SMILES CCCCCCCCCCCCCCCC(=O)N[C@@H](CCC(=O)O)C(=O)N[C@@H](CCSC)C(=O)N[C@@H](C)C(=O)N[C@H](C(N)=O)[C@@H](C)CC)	137			
Ac-L-Arg-Phg-Phg-OH	120	201	116	
H-L-Glu-L-Met-L-Ala-L-Ile-OH (H-EMAI-OH)	125			
Ac-L-Glu-L-Met-L-Ala-L-Ile-OH (Ac-EMAI-OH)	196			Relative hBD2 mRNA level (hBD2 mRNA; 1 mm peptide, normalized to 18S rRNA and untreated cells (CONTROL 100%)): 323%; Relative hBD2 level (hBD2; 1 mm peptide, supernatants of human keratinocytes from Example 15, standardized to untreated cells (CONTROL 100%)): 129%
Ac-Arg-[Ahx]-Ala-OH	137	126	126	
CC[C@H](C)[C@H](N)C(=O)O [L-Ile, L-Isoleucine, reference compound]				LUMINESCENCE INCREASE (hBD2 promoter; positive control L-Isoleucine 25 μg/mL, 24 h, A549 stable line, CONTROL 100%): 127%; Relative hBD2 mRNA level (hBD2 mRNA; positive control L-Ile 200 μg/mL, CONTROL 100%): 125%; Relative hBD2 level (hBD2; positive control L-Ile 200 μg/mL, keratinocyte supernatants, CONTROL 100%): 134%
